In patent US5990328A, “Process for the preparation of 4-amino-Δ4-3-ketosteroids via 4-nitro-Δ4-3-ketosteroids” (priority 1999, dated 1999):

Legend:
Type in all cases: biochemical
[1] = target: T1, monkey testicular C17-20 lyase (Macaca fascicularis, UniProt Q2XVA1); assay: inhibition of cynomolgus monkey testicular C17-20 lyase (microsomes), with or without preincubation; details: for inhibition at 0.1 µM / inhibition at 1 µM: cynomolgus monkey testicular lyase; for inhibition at 0.1 µM: concentration 0.1 μM; for inhibition at 1 µM: concentration 1 μM
T1 construct: microsomal preparations of the enzyme from rat or cynomolgus monkey testicular tissue; from tissue; host or cells: cynomolgus monkey testicular tissue, microsomes
T1 sequence (Q2XVA1 1-508): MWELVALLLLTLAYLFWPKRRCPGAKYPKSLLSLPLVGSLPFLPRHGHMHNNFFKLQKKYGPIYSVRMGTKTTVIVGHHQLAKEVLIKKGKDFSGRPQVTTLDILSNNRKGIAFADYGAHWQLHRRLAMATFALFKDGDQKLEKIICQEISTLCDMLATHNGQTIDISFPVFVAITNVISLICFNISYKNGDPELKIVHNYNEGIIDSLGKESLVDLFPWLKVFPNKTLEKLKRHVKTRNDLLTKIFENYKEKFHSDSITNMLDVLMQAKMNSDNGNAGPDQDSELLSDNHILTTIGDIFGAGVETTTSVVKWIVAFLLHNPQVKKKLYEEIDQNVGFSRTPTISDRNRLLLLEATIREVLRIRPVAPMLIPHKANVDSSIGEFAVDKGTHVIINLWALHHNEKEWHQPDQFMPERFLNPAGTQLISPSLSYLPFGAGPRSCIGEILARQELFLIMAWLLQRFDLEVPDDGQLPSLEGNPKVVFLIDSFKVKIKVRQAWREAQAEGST
Description: (§1) The in vitro enzymatic inhibitory activity of the present compounds as inhibitors of steroid C17-20 lyase was established using microsomal preparations of the enzyme from rat or cynomolgus monkey testicular tissue. Microsomes were isolated from cynomolgus monkey or rat testicular tissue. The compound to be tested was dissolved in dimethyl sulfoxide and diluted in 0.05M potassium phosphate buffer, (pH 7.4 for cynomolgus monkey lyase activity and pH 7.2 for rat lyase activity) to give the desired concentrations of test compound. The final assay concentration of DMSO was 0.1% (v/v). Assays contained an NADPH regenerating system comprised of […], 5 mM glucose-6-phosphate, 1 IU/mL glucose-6-phosphate dehydrogenase and microsomal protein in a total volume of 0.2 mL.
For determination of time dependent C17-20 lyase inactivation, the test compound was incubated with 20 to 62 μg/mL microsomal protein, 0.05 M potassium phosphate buffer, pH 7.4, and the NADPH regenerating system described above at 34° C. for 0 to 40 minutes. Aliquots of 180 μL were then removed and assayed for enzyme activity. Each aliquot was added to [7-^3 H]-17α-hydroxypregnenolone (11.2 mCi/mmole; 0.2 μCi per assay) plus unlabeled 17α-hydroxypregnenolone to give a total substrate concentration of 0.3 μM per assay and subsequently incubated for 6 minutes at 34° C. For determination of reversible inhibition by the test compound, the reaction was initiated by the addition of substrate and inhibitor (or DMSO in buffer for controls) simultaneously to the other assay components. The substrate used for cynomolgus monkey lyase was 7-^3 H-17α-hydroxypregnenolone, which yielded a final concentration of 0.3 μM substrate. […] The complete assay was incubated at 34° C. for 6 minutes for both rat and monkey lyase.
Each assay was terminated by addition of 5 mL of chloroform:methanol (2:1). Carrier steroid (2.5 μg each) representing substrates and products and 0.8 mL of distilled, deionized water were then added to each assay. Carrier steroids for the lyase assays were 17α-hydroxy-pregnenolone,dehydroepiandrosterone, and androst-5-ene-3β,17β-diol (cynomolgus monkey lyase assays) or 17α-hydroxyprogesterone, androstenedione, and testosterone (rat lyase assays). Testosterone, dihydrotestosterone, and 3,17-androstanediol were added to the 5α-reductase assays as carrier steroids. Radiolabeled and unlabeled steroid were extracted by the method of Moore and Wilson (Methods in Enzymol., eds. O'Malley, B. W. and Hardlan, J. G. 36, 1975, pp. 466-473). The organic phase containing the steroids was evaporated using nitrogen gas. For lyase assays, the residues dissolved in 18% tetrahydrofuran (v/v) in hexane. For 5α-reductase assays, the dried steroid residues were dissolved in 3% (v/v) isopropanol in hexane. the steroids were then separated by normal phase HPLC on a LiCrosorb® DIOL derivatized silica gel column (10 μm; 4×250 mm) with a 3% to 7.5% isopropanol in hexane gradient, followed by isocratic conditions of […] isopropanol in hexane. Radioactivity in the steroid peaks was measured using a Radiomatic® Model HS or Model A515 Flo-One detector for both lyase and 5α-reductase assays.
The enzyme activity for each assay was calculated from the percent conversion of substrate to products, and the results were expressed as percent inhibition of control. The data from these experiments were fitted into the appropriate two parameter model incorporating six concentrations of inhibitor to determine an IC50 value. […] When the compounds were tested using the above procedures with cynomolgus monkey testicular lyase, the following results were obtained: […]

[2] = target: T2, prostatic monkey 5α-reductase (Macaca fascicularis, UniProt Q28892); assay: inhibition of cynomolgus monkey prostatic 5α-reductase (microsomes)
T2 construct: microsomes were isolated from cynomolgus monkey prostate tissue; from tissue; host or cells: cynomolgus monkey prostate tissue, microsomes
T2 sequence (Q28892 1-254): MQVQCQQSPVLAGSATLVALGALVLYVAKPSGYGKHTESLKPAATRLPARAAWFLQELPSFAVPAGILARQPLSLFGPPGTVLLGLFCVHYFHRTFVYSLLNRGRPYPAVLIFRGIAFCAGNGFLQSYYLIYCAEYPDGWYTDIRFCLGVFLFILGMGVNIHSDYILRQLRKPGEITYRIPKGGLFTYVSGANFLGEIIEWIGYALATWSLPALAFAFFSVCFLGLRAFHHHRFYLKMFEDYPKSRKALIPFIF
Description: The activity of the present compounds as inhibitors of steroid 5α-reductase was determined using microsomal preparations of the 5α-reductase enzyme from laboratory animal prostate tissue. Specifically, microsomes were isolated from cynomolgus monkey prostate tissue. Protein concentration of the microsomal preparations was determined prior to use of the samples. […] Background radioactivity was determined from assays containing all components except enzyme. […]
(§2) Each assay was terminated by addition of 5 mL of chloroform:methanol (2:1). […] Radioactivity in the steroid peaks was measured using a Radiomatic® Model HS or Model A515 Flo-One detector for both lyase and 5α-reductase assays.
(§3) The enzyme activity for each assay was calculated from the percent conversion of substrate to products, and the results were expressed as percent inhibition of control. […]

[3] = target: T3, rat testicular C17-20 lyase (Rattus norvegicus, UniProt P11715); assay: inhibition of rat testicular C17-20 lyase (microsomes)
T3 construct: microsomal preparations of the enzyme from rat or cynomolgus monkey testicular tissue; from tissue; host or cells: rat testicular tissue, microsomes
T3 sequence (P11715 1-507): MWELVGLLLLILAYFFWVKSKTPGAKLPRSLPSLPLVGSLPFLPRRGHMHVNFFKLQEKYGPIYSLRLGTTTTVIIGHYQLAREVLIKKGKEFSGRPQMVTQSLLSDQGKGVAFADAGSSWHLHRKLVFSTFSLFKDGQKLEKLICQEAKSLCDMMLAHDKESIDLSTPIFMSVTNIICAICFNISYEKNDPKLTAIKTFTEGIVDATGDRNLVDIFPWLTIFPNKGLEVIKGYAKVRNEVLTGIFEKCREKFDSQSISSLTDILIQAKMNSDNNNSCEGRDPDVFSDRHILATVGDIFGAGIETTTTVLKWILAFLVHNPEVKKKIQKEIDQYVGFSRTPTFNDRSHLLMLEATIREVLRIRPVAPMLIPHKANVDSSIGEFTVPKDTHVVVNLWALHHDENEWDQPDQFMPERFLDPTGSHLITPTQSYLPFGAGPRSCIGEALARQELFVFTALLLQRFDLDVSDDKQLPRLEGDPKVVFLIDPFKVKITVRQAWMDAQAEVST
Description: as §1, with “mL. […]” for “mL.”
as §2, §3

[4] = preincubation time 40 (minutes)

Structure (SMILES) | inhibition at 0.1 µM ([1]; preincubation time 0 (minutes)) [%] | inhibition at 1 µM ([1]; preincubation time 0 (minutes)) [%] | inhibition at 0.1 µM [1, 4] [%] | inhibition at 1 µM [1, 4] [%] | IC50 [2] [nM] | IC50 ([3]; rat testicular microsomes, substrate 0.1 μM 17α-hydroxyprogesterone, pH 7.2, 34° C.) [nM] | IC50 ([1]; cynomolgus monkey testicular microsomes, substrate 0.3 μM 17α-hydroxypregnenolone, 34° C.) [nM] | Km ([3]; substrate Km, rat lyase activity) [µM]
C[C@]12CC[C@H]3[C@@H](CCC4=C([N+](=O)[O-])C(=O)CC[C@@]43C)[C@@H]1CC[C@@H]2OC1CC1 [17β-cyclopropyloxy-4-nitroandrost-4-en-3-one] | 36 | 78 | 79 | 95 |  |  |  | 
C[C@H](CS)[C@H]1CC[C@H]2[C@@H]3CCC4=C([N+](=O)[O-])C(=O)CC[C@]4(C)[C@H]3CC[C@]12C [(20S)-20-mercaptomethyl-4-nitropregn-4-en-3-one] | 0 | 69 | 26 | 93 |  |  |  | 
C[C@H](CO)[C@H]1CC[C@H]2[C@@H]3CCC4=C([N+](=O)[O-])C(=O)CC[C@]4(C)[C@H]3CC[C@]12C [(20S)-20-Hydroxymethyl-4-nitropregn-4-en-3-one] |  |  |  |  | 17 | 86 | 41 | 
CC(=O)[C@@]1(O)CC[C@H]2[C@@H]3CCC4=CC(=O)CC[C@]4(C)[C@H]3CC[C@@]21C [[1,2-^3 H]-17α-hydroxyprogesterone, reference compound] |  |  |  |  |  |  |  | 0.095
